# Test results taken from patent US8377974B2 (Millennium Pharmaceuticals, Inc., priority 2004, dated 2013).
# Molecular target: T1, human plasma protein factor Xa (Homo sapiens, UniProt P00742)
# T1 construct: measure proteolytic activity of the enzyme (factor Xa); purchased Haematologic Technologies (Essex Junction, Vt.); host or cells: human plasma
# Test: Factor Xa IC50 determination: cleavage of paranitroanilide substrate S-2765 in 96-well plates
# Assay type: biochemical
# Conditions: fXa 1 nM, S-2765 100 μM, Tris buffered saline pH 7.4, room temperature
# From the text: This example illustrates methods for evaluating the compounds of the invention, along with results obtained for such assays. The in vitro and in vivo Factor Xa isoform activities of the inventive compounds can be determined by various procedures known in the art, such as a test for their ability to inhibit the activity of the Factor Xa isoform. […] The IC50 value is the concentration (in nM) of the compound required to provide 50% inhibition of Factor Xa isoform.
# An in vitro assay for detecting and measuring inhibition activity against Factor Xa is as follows:
# The substrate S-2765 (Z-D-Arg-Gly-Arg-pNA.HCl) was obtained from Diapharma (West Chester, Ohio).
# The human plasma protein factor Xa was purchased from Haematologic Technologies (Essex Junction, Vt.).
# All assays, which are performed in 96-well microtiter plates, measure proteolytic activity of the enzyme (factor Xa) by following cleavage of paranitroanilide substrate. The assay buffer used for proteolytic assays was Tris buffered saline (20 mM Tris, 150 mM NaCl, 5 mM CaCl2, 0.1% Bovine serum albumin (BSA), 5% Dimethly Sulfoxide (DMSO) pH 7.4). In a 96-well microtiter plate, inhibitor was serially diluted to give a range of concentrations from 0.01 nM to 10 μM (final). Duplicate sets of wells were assayed and control wells without inhibitor were included. Enzyme was added to each well, (fXa concentration=1 nM), the plate was shaken for 5 seconds and then incubated for 5 minutes at room temperature. S2765 was added (100 μM final) and the plate was shaken for 5 seconds (final liquid volume in each well was 200 μl). The degree of substrate hydrolysis was measured at 405 nm on a Thermomax plate reader (Molecular Devices, Sunnyvale, Calif.) for 2 minutes. The initial velocities (mOD/min), for each range of inhibitor concentrations, were fitted to a four parameter equation using Softmax data analysis software. The parameter C, derived from the resulting curve-fit, corresponded to the concentration for half maximal inhibition (IC50).
# T1 sequence (P00742 235-488 limits assumed): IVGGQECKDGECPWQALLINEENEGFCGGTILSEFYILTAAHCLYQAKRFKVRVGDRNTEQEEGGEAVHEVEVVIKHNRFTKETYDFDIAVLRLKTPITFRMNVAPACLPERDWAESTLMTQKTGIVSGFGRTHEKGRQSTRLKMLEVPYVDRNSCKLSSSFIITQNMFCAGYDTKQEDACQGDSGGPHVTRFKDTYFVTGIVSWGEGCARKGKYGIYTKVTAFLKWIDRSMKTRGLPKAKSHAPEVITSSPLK
# T1 sequence (P00742 41-179 partner limits assumed): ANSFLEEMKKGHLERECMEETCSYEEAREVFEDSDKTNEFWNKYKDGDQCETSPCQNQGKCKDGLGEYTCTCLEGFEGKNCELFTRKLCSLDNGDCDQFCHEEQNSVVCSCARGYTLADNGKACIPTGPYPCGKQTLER
row,SMILES,IC50
1,"N=C(c1ccc(C2=NOC(CNC(=O)c3ccc(Cl)s3)C2)c(N2CCOCC2)c1)N1CCCCC1 (stereo not drawn) [Example 85, 5-Chloro-thiophene-2-carboxylic acid {3-[4-(imino-piperidin-1-yl-methyl)-2-morpholin-4-yl-phenyl]-4,5-dihydro-isoxazol-5-ylmethyl}-amide]",100 to 500 nM
2,"CN(c1ccc(C2=NOC(CNC(=O)c3ccc(Cl)s3)C2)cc1)c1ccnc(N)n1 (stereo not drawn) [Example 231, 5-Chloro-thiophene-2-carboxylic acid (3-{4-[(2-amino-pyrimidin-4-yl)-methyl-amino]-phenyl}-4,5-dihydro-isoxazol-5-ylmethyl)-amide]",≥ 500 nM
3,"Nc1ccc(C2=NOC(CNC(=O)c3ccc(Cl)s3)C2)cc1 (stereo not drawn) [Example 160, 5-Chloro-thiophene-2-carboxylic acid [3-(4-amino-phenyl)-4,5-dihydro-isoxazol-5-ylmethyl]-amide]",≥ 500 nM
4,"O=C(NCc1cc(-c2ccccc2)no1)c1ccc(Cl)s1 [Example 146, 5-Chloro-thiophene-2-carboxylic acid (3-phenyl-isoxazol-5-ylmethyl)-amide]",≥ 500 nM
5,"COc1ccc(CN(C)C)c(-c2ccc(C3=NOC(CNC(=O)c4ccc(Cl)s4)C3)cc2)c1 (stereo not drawn) [Example 202, 5-Chloro-thiophene-2-carboxylic acid [3-(2′-dimethylaminomethyl-5′-methoxy-biphenyl-4-yl)-4,5-dihydro-isoxazol-5-ylmethyl]-amide]",≥ 500 nM
6,"N=C(c1ccc(-c2nc(CNC(=O)c3ccc(Cl)s3)cs2)cc1)N1CCCCC1 [Example 353, 5-Chloro-N-((2-(4-(imino(piperidin-1-yl)methyl)phenyl)thiazol-4-yl)methyl)thiophene-2-carboxamide]",100 to 500 nM
7,"O=C(NCC1CC(c2ccc(-c3cccnc3)cc2)=NO1)c1ccc(Cl)s1 (stereo not drawn) [Example 190, 5-Chloro-thiophene-2-carboxylic acid [3-(4-pyridin-3-yl-phenyl)-4,5-dihydro-isoxazol-5-ylmethyl]-amide]",100 to 500 nM
8,"CCCN(C)C(=N)c1ccc(-c2nc(CNC(=O)c3ccc(Cl)s3)co2)cc1 [Example 344, N-((2-(4-(N-Methyl-N-propylcarbamimidoyl)phenyl)oxazol-4-yl)methyl)-5-chlorothiophene-2-carboxamide]",100 to 500 nM
9,"N=C(c1ccc(-c2csc(CNC(=O)c3ccc(Cl)s3)n2)cc1)N1CCCCC1 [Example 363, 5-Chloro-N-((4-(4-(imino(piperidin-1-yl)methyl)phenyl)thiazol-2-yl)methyl)thiophene-2-carboxamide]",≥ 500 nM
10,"O=C(NCc1cc(-c2ccc(C(=O)N3CCCC3)cc2)no1)c1ccc(Cl)s1 [Example 167, 5-Chloro-thiophene-2-carboxylic acid {3-[4-(pyrrolidine-1-carbonyl)-phenyl]-isoxazol-5-ylmethyl}-amide]",100 to 500 nM
11,"O=C(NCc1cc(-c2cccc(-c3cccnc3)c2)no1)c1ccc(Cl)s1 [Example 276, 5-Chloro-thiophene-2-carboxylic acid [3-(3-pyridin-3-yl-phenyl)-isoxazol-5-ylmethyl]-amide]",≥ 500 nM
12,"CN(Cc1cc(-c2ccc(C(=N)N3CCC(C(N)=O)CC3)cc2)no1)C(=O)c1ccc(Cl)s1 [Example 45, 1-{[4-(5-{[(5-Chloro-thiophene-2-carbonyl)-methyl-amino]-methyl}-isoxazol-3-yl)-phenyl]-imino-methyl}-piperidine-4-carboxylic acid amide]",≥ 500 nM
13,"CN1CCN=C1c1ccc(-n2cc(CNC(=O)c3ccc(Cl)s3)cn2)cc1 [Example 326, 5-Chloro-N-((1-(4-(1-methyl-4,5-dihydro-1H-imidazol-2-yl)phenyl)-1H-pyrazol-4-yl)methyl)thiophene-2-carboxamide]",≤ 100 nM
14,"O=C(NCC1CC(c2ccc(-c3ccccc3CN3CCCC3)cc2)=NO1)c1ccc(Cl)s1 (stereo not drawn) [Example 195, 5-Chloro-thiophene-2-carboxylic acid [3-(2′-pyrrolidin-1-ylmethyl-biphenyl-4-yl)-4,5-dihydro-isoxazol-5-ylmethyl]-amide]",≤ 100 nM
15,"CN(C)C(=N)c1ccc(-c2csc(CNC(=O)c3ccc(Cl)s3)n2)cc1 [Example 360, N-((4-(4-(N,N-Dimethylcarbamimidoyl)phenyl)thiazol-2-yl)methyl)-5-chlorothiophene-2-carboxamide]",≥ 500 nM
16,"COc1cc(C(=N)N2CCCCC2)ccc1-c1cc(CNC(=O)c2ccc(Cl)s2)on1 [Example 121, 5-Chloro-thiophene-2-carboxylic acid {3-[4-(imino-piperidin-1-yl-methyl)-2-methoxy-phenyl]-isoxazol-5-ylmethyl}-amide]",≤ 100 nM

# More lines, now with the values ahead:
row,IC50,SMILES
1,≤ 100 nM,"N=C(c1ccc(C2=NOC(CNC(=O)c3ccc(Cl)s3)C2)c(N2CCCCCC2)c1)N1CCCC1 (stereo not drawn) [Example 92, 5-Chloro-thiophene-2-carboxylic acid {3-[2-azepan-1-yl-4-(imino-pyrrolidin-1-yl-methyl)-phenyl]-4,5-dihydro-isoxazol-5-ylmethyl}-amide]"
2,≤ 100 nM,"CN(C)C(=N)c1ccc(-c2cccc(CNC(=O)c3ccc(Cl)s3)c2)cc1 [Example 380, N-((3-(4-(N,N-Dimethylcarbamimidoyl)phenyl)phenyl)methyl)-5-chlorothiophene-2-carboxamide]"
3,≤ 100 nM,"N=C(c1ccc(-c2cc(CNC(=O)c3ccc(Cl)s3)ccc2F)cc1)N1CCCC1 [Example 379, 5-Chloro-N-((3-(4-(imino(pyrrolidin-1-yl)methyl)phenyl)-4-fluorophenyl)methyl)thiophene-2-carboxamide]"
4,≤ 100 nM,"N=C(c1ccc(-c2cncc(CNC(=O)c3ccc(Cl)s3)c2)cc1)N1CCCC1 [Example 372, 5-Chloro-N-((5-(4-(imino(pyrrolidin-1-yl)methyl)phenyl)pyridin-3-yl)methyl)thiophene-2-carboxamide]"
5,≤ 100 nM,"CN(C)CCN(C)C(=N)c1ccc(-c2cc(CNC(=O)c3ccc(Cl)s3)on2)cc1 [Example 30, 5-Chloro-thiophene-2-carboxylic acid (3-{4-[N-(2-dimethylamino-ethyl)-N-methyl-carbamimidoyl]-phenyl}-isoxazol-5-ylmethyl)-amide]"
6,≤ 100 nM,"COc1ccc(=O)n(-c2ccc(C3=NOC(CNC(=O)c4ccc(Cl)s4)C3)cc2)c1 (stereo not drawn) [Example 286, 5-Chloro-N-((3-(4-(5-methoxy-2-oxopyridin-1(2H)-yl)phenyl)-4,5-dihydroisoxazol-5-yl)methyl)thiophene-2-carboxamide]"
7,≤ 100 nM,"CN1CCN=C1c1ccc(C2=NOC(CNC(=O)c3ccc(Cl)s3)C2)c(N2CCCCCC2)c1 (stereo not drawn) [Example 91, 5-Chloro-thiophene-2-carboxylic acid {3-[2-azepan-1-yl-4-(1-methyl-4,5-dihydro-1H-imidazol-2-yl)-phenyl]-4,5-dihydro-isoxazol-5-ylmethyl}-amide]"
8,≤ 100 nM,"COc1cc(C(=N)N2CCCCC2)ccc1C1=NOC(CNC(=O)c2ccc(Cl)s2)C1 (stereo not drawn) [Example 105, 5-Chloro-thiophene-2-carboxylic acid {3-[4-(imino-piperidin-1-yl-methyl)-2-methoxy-phenyl]-4,5-dihydro-isoxazol-5-ylmethyl}-amide]"
9,≤ 100 nM,"CN(C)c1cc(C(=N)N2CCCC2)ccc1-c1cc(CNC(=O)c2ccc(Cl)s2)on1 [Example 96, 5-Chloro-thiophene-2-carboxylic acid {3-[2-dimethylamino-4-(imino-pyrrolidin-1-yl-methyl)-phenyl]-isoxazol-5-ylmethyl}-amide]"
10,≤ 100 nM,"N=C(c1ccc(-c2ccc(F)c(CNC(=O)c3ccc(Cl)s3)c2)cc1)N1CCCC1 [Example 376, 5-Chloro-N-((5-(4-(imino(pyrrolidin-1-yl)methyl)phenyl)-2-fluorophenyl)methyl)thiophene-2-carboxamide]"
11,≤ 100 nM,"CCN(C)C(=N)c1ccc(C2=NOC(C)(CNC(=O)c3ccc(Cl)s3)C2)cc1 (stereo not drawn) [Example 64, 5-Chloro-thiophene-2-carboxylic acid {3-[4-(N-ethyl-N-methyl-carbamimidoyl)-phenyl]-5-methyl-4,5-dihydro-isoxazol-5-ylmethyl}-amide]"
12,≤ 100 nM,"O=C(NCc1cn(-c2ccc(-n3cc(F)ccc3=O)cc2)nn1)c1ccc(Cl)s1 [Example 298, 5-Chloro-N-((1-(4-(5-fluoro-2-oxopyridin-1(2H)-yl)phenyl)-1H-1,2,3-triazol-4-yl)methyl)thiophene-2-carboxamide]"
13,≤ 100 nM,"N=C(c1ccc(-n2cc(CNC(=O)c3ccc(Cl)s3)nn2)cc1)N1CCCCC1 [Example 319, 5-Chloro-N-((1-(4-(imino(piperidin-1-yl)methyl)phenyl)-1H-1,2,3-triazol-4-yl)methyl)thiophene-2-carboxamide]"
14,≤ 100 nM,"CN(C)C(=N)c1ccc(C2=NOC(C)(CNC(=O)c3ccc(Cl)s3)C2)cc1 (stereo not drawn) [Example 57, 5-Chloro-thiophene-2-carboxylic acid {3-[4-(N,N-dimethyl-carbamimidoyl)-phenyl]-5-methyl-4,5-dihydro-isoxazol-5-ylmethyl}-amide]"
